Assay results taken from ChEMBL document CHEMBL1149464, “Structure-guided synthesis of tamoxifen analogs with improved selectivity for the orphan ERRgamma” (Bioorg Med Chem Lett, 2006).

The compounds below were run against T1, Estrogen-related receptor gamma (Homo sapiens, UniProt P62508) (assay: Displacement of [3H]4-OHT from ERRgamma at 3 uM).
T1 sequence (P62508 whole entry): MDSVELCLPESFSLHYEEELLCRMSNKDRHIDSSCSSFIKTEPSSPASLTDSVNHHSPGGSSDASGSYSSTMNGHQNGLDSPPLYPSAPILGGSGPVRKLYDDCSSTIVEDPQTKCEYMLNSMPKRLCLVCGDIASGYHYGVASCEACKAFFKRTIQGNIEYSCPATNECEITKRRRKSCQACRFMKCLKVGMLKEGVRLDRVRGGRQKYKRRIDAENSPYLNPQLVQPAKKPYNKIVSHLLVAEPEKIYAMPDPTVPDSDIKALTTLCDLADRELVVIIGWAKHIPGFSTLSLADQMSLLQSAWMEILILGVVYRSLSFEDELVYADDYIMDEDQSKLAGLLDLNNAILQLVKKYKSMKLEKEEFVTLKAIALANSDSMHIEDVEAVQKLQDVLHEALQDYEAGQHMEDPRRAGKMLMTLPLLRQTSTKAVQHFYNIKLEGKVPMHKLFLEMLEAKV

| SMILES | IC50 |
| --- | --- |
| CNCCC/C(=C(\c1ccc(O)cc1)c1ccc(OCCN(C)C)cc1)c1ccccc1 | Not Active |
| CC(=O)NCCC/C(=C(\c1ccc(O)cc1)c1ccc(OCCN(C)C)cc1)c1ccccc1 | Not Active |
| CN(C)CCOc1ccc(/C(=C(/CCCC(=O)O)c2ccccc2)c2ccc(O)cc2)cc1 | Not Active |
| CN(C)CCC/C(=C(\c1ccc(O)cc1)c1ccc(OCCN(C)C)cc1)c1ccccc1 | Not Active |

These compounds were tested against T1, Estrogen-related receptor gamma.

| SMILES | IC50 [nM] |
| --- | --- |
| CSCCC/C(=C(\c1ccc(O)cc1)c1ccc(OCCN(C)C)cc1)c1ccccc1 | 1000 |
| CN(C)CCOc1ccc(/C(=C(/CCCCO)c2ccccc2)c2ccc(O)cc2)cc1 | 790 |
| CN(C)CCOc1ccc(/C(=C(/CCCN=[N+]=[N-])c2ccccc2)c2ccc(O)cc2)cc1 | 160 |

The next lines start with the values.

| IC50 [nM] | SMILES |
| --- | --- |
| 1300 | CN(C)CCOc1ccc(/C(=C(/CCC#N)c2ccccc2)c2ccc(O)cc2)cc1 |
| 130 | CN(C)CCOc1ccc(/C(=C(/CCCCl)c2ccccc2)c2ccc(O)cc2)cc1 |
| 13 | CN(C)CCOc1ccc(/C(=C(/CCCl)c2ccccc2)c2ccc(O)cc2)cc1 [4-HYDROXYTORMIFENE] |
| 5 | CN(C)CCOc1ccc(/C(=C(/CCN=[N+]=[N-])c2ccccc2)c2ccc(O)cc2)cc1 |
| 200 | CN(C)CCOc1ccc(/C(=C(/CCCC#N)c2ccccc2)c2ccc(O)cc2)cc1 |

Each compound was assayed against T2, Estrogen receptor (Homo sapiens, UniProt P03372).
T2 sequence (P03372 whole entry): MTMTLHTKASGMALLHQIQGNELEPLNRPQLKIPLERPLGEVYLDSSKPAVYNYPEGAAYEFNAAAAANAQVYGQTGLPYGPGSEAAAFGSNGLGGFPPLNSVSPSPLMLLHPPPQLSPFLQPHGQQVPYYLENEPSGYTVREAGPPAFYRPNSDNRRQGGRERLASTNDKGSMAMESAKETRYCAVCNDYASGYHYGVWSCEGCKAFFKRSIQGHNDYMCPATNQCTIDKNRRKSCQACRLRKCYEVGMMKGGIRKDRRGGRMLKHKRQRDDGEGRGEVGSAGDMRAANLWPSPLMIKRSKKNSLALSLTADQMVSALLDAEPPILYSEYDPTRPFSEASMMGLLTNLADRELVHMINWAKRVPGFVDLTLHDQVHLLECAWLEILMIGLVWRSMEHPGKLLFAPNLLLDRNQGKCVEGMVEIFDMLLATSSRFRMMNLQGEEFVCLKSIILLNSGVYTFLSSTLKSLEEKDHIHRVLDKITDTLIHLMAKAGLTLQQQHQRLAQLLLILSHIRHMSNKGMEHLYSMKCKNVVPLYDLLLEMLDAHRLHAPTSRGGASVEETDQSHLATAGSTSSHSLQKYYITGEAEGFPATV

| IC50 [nM] | SMILES |
| --- | --- |
| 1 | CN(C)CCOc1ccc(/C(=C(/CCN=[N+]=[N-])c2ccccc2)c2ccc(O)cc2)cc1 |

Species: Homo sapiens
Experiment: Selectivity for ERRgamma over ERalpha relative to 4-hydroxytamoxifen; call rule not given here

| Ratio IC50 | SMILES |
| --- | --- |
| 1.6 | CN(C)CCOc1ccc(/C(=C(/CCN=[N+]=[N-])c2ccccc2)c2ccc(O)cc2)cc1 |
